Test results published in article PMC11842024, “Reversible male contraception by targeted inhibition of serine/threonine kinase 33” (Science (New York, N.Y.), 2024).

How the values were obtained:
[1] = Deaths and body weight during treatment; format: in vivo, mice
Protocol: using individual calibration curves established with the corresponding tissue homogenates from untreated mice. The calibration curve was regressed with a weight of 1/x2 with high linearity (r2 […]
Spatial distribution of CDD-2807 in testis. The testis from the mice treated with CDD-2807 were attached to the Leica CM3050 S cryostat (Leica Biosystems, Deer Park, IL) with water and then sectioned at the thickness of 10 μm at −20°C. The sections were attached to electrically conductive glass slides coated with indium tin oxide ([…], 70-100 ohms, Delta Technologies, Loveland, CO). Tissue sections were sprayed with a matrix solution containing 35 mg/mL 2,5-dihydroxybenzoic acid (DHB, Sigma, St. Louis, MO) in 70% aqueous CH3OH with 0.1% trifluoroacetic acid using an HTX TM-Sprayer (HTX Technologies LLC, Carrboro, NC). Sprayer nozzle temperature was set at 70°C, tray temperature at 40°C, nozzle velocity at 1200 mm/min, track spacing at 2 mm, drying time for 10 sec and nitrogen gas pressure at 10 psi. The data were collected on the Bruker TimsTOF MS MALDI-2 instrument with the resolution at 40 µm/pixel (mass range 100−1000 Da under the positive mode) using DHB ion as the on-line calibrant. The data was analyzed, and the images were plotted by SciLs Lab software (Bruker, Billerica, MA). […]
Alanine transaminase (ALT) and aspartate transaminase (AST) assays. […] ALT and AST levels were measured in duplicates using assay kits (StanBio, Boerne, TX) according to the manufacturer's instructions. ALT and AST levels were determined using the rate of NADH oxidation, which was quantified by measuring absorbance at 340 nm using a CLARIOstar plate reader (BMG Labtech in Cary, NC). ALT and AST were tested for significance at multiple collection time points, tests for significance included a test for normality (Shapiro-Wilk test) and following the test for normality were then analyzed using an unpaired t-test with significance determined by an alpha of P = 0.05. […]
Fertility analysis. […] Weights were measured daily prior to drug administration and monitored throughout the entirety of the injection period. […]

[2] = test system: male mice; test: Histological analysis of testis and epididymis; format: in vivo
Text: fig. S24. Histological analysis of testis and epididymis segments (caput & corpus) from control and CDD-2807-treated male mice from protocol 1. Bouin’s fixed, 4 µm-cross sections of the testis (A) and horizontal sections of the epididymis (B) were stained with PAS-hematoxylin.
All 12 stages of spermatogenesis are represented in both control and CDD-2807-treated mice and show normal tissue morphology and acrosome development. Epididymis from the control and CDD-2807-treated mice were similar histologically. Scale bars are 60 µm.
(1 picture or pasted object on this page, not shown here) […]
fig. S25. Histological analysis of testis and epididymis segments (caput & corpus) from control and CDD-2807-treated male mice from protocol 2. Bouin’s fixed, 4 µm-cross sections of the testis (A) and longitudinal sections of the epididymis (B) were stained with PAS-hematoxylin. All 12 stages of spermatogenesis are represented in both control and CDD-2807-treated mice, although it was difficult to find all stages in the CDD-2807-treated mice. Epididymis from the control and CDD-2807-treated mice were very different histologically, control mice had normal sperm cells, while CDD-2807 mice had occasional round spermatids present in the epididymis. Scale bars are 60 µm.

## O=C(c1ccc2[nH]nc(C#Cc3ccccc3-c3ccccc3)c2c1)N1CC2(CCCNC2)C1 [CDD-2807]
[1]; 50 mg/kg/day for 7 days (Protocol 3)
  mouse body weights: 27.05 ± 0.79 g
[1]; protocols 1 and 2
  deaths during the period of treatment: no deaths
  weight changes during the period of treatment: no significant weight changes
[2]; protocol 1
  histology of testes and epididymis: no detectable defects
[2]; protocol 2
  histology of epididymis: round spermatids in the epididymis
